The source made the active and inactive calls. The calls are words filed in the database; no cut-off is given here.
How the values were obtained:
[1] = target: Sodium-dependent dopamine transporter (Homo sapiens, UniProt Q01959); assay: dopamine transporter (h) Eurofins-Cerep binding assay; design: ligand concentration 4 nM; conditions: filed as antagonist, Compound concentration 10.0 uM
[2] = target: Acetylcholinesterase (Homo sapiens) (UniProt P22303); assay: Acetylcholinesterase (h) Eurofins-Cerep enzyme and uptake assay; conditions: Compound concentration 10.0 uM
[3] = target: Serine/threonine-protein kinase Nek5 (Homo sapiens) (UniProt Q6P3R8); conditions: Compound concentration 1000.0 nM
[4] = target: Homeodomain-interacting protein kinase 1 (Homo sapiens) (UniProt Q86Z02); conditions: Compound concentration 1000.0 nM
[5] = target: cGMP-dependent protein kinase 1 (Homo sapiens) (UniProt Q13976); conditions: Compound concentration 1000.0 nM
[6] = tested on: Phosphatidylinositol 4,5-bisphosphate 3-kinase catalytic subunit alpha isoform (Homo sapiens), P42336 [E542K]; conditions: Compound concentration 1000.0 nM
[7] = target: Ribosomal protein S6 kinase alpha-2 (Homo sapiens) (UniProt Q15349); conditions: Compound concentration 1000.0 nM
[8] = target: Tyrosine-protein kinase CSK (Homo sapiens) (UniProt P41240); conditions: Compound concentration 1000.0 nM
[9] = target: Serine/threonine-protein kinase SBK1 (Homo sapiens) (UniProt Q52WX2); conditions: Compound concentration 1000.0 nM
[10] = target: Serine/threonine-protein kinase Nek11 (Homo sapiens) (UniProt Q8NG66); conditions: Compound concentration 1000.0 nM
[11] = target: Mitogen-activated protein kinase kinase kinase 2 (Homo sapiens) (UniProt Q9Y2U5); conditions: Compound concentration 1000.0 nM
[12] = target: 5'-AMP-activated protein kinase catalytic subunit alpha-2 (Homo sapiens) (UniProt P54646); conditions: Compound concentration 1000.0 nM
[13] = target: D(1B) dopamine receptor (Homo sapiens) (UniProt P21918); conditions: Compound concentration 10.0 uM
[14] = target: Angiopoietin-1 receptor (Homo sapiens) (UniProt Q02763); conditions: Compound concentration 1000.0 nM
[15] = target: Cyclin-dependent kinase 13 (Homo sapiens) (UniProt Q14004); conditions: Compound concentration 1000.0 nM
[16] = target: Death-associated protein kinase 1 (Homo sapiens) (UniProt P53355); conditions: Compound concentration 1000.0 nM
[17] = target: Prostaglandin G/H synthase 2 (Homo sapiens) (UniProt P35354); assay: COX2(h) Eurofins-Cerep enzyme and uptake assay; conditions: Compound concentration 10.0 uM
[18] = target: 5-hydroxytryptamine receptor 2B (Homo sapiens) (UniProt P41595); assay: 5-HT2B (h) Eurofins-Cerep binding assay; design: ligand concentration 0.2 nM; conditions: filed as agonist, Compound concentration 10.0 uM
[19] = target: GABA-A receptor; anion channel (Rattus norvegicus) (UniProt O09028+P15431+P18506+P18508+P19969+P20236+P23574+P23576+P28471+P28473+P30191+P62813+P63079+P63138+Q91ZM7+Q9ES14); conditions: Compound concentration 10.0 uM
[20] = target: Serine/threonine-protein kinase MRCK gamma (Homo sapiens) (UniProt Q6DT37); conditions: Compound concentration 1000.0 nM
[21] = target: Serine/threonine-protein kinase PLK3 (Homo sapiens) (UniProt Q9H4B4); conditions: Compound concentration 1000.0 nM
[22] = target: Serine/threonine-protein kinase Nek4 (Homo sapiens) (UniProt P51957); conditions: Compound concentration 1000.0 nM
[23] = tested on: Mast/stem cell growth factor receptor Kit (Homo sapiens), P10721 [L576P]; conditions: Compound concentration 1000.0 nM
[24] = target: Interleukin-1 receptor-associated kinase 3 (Homo sapiens) (UniProt Q9Y616); conditions: Compound concentration 1000.0 nM
[25] = tested on: Tyrosine-protein kinase ABL1 (Homo sapiens), P00519 [Y253F]; conditions: Compound concentration 1000.0 nM
[26] = target: Serine/threonine-protein kinase mTOR (Homo sapiens) (UniProt P42345); conditions: Compound concentration 1000.0 nM
[27] = target: Atypical kinase COQ8B, mitochondrial (Homo sapiens) (UniProt Q96D53); conditions: Compound concentration 1000.0 nM
NCI-H146 = assay: CellTiter-Glo Luminescent Cell Viability Assay (BCL-XL dependent cell line H146); type: functional, cell-based; conditions: Homo sapiens
[28] = target: Serine/threonine-protein kinase SIK2 (Homo sapiens) (UniProt Q9H0K1); conditions: Compound concentration 1000.0 nM
[29] = target: SRSF protein kinase 2 (Homo sapiens) (UniProt P78362); conditions: Compound concentration 1000.0 nM
[30] = target: Beta-adrenergic receptor kinase 1 (Homo sapiens) (UniProt P25098); conditions: Compound concentration 1000.0 nM
[31] = target: Tyrosine-protein kinase FRK (Homo sapiens) (UniProt P42685); conditions: Compound concentration 1000.0 nM
[32] = target: Serine/threonine-protein kinase D2 (Homo sapiens) (UniProt Q9BZL6); conditions: Compound concentration 1000.0 nM
[33] = target: Apoptosis regulator Bcl-2 (Homo sapiens, UniProt P10415); assay: Time-resolved fluorescence energy transfer (TR-FRET) with BCL2
[34] = target: Serine/threonine-protein kinase Nek2 (Homo sapiens) (UniProt P51955); conditions: Compound concentration 1000.0 nM
[35] = target: Epithelial discoidin domain-containing receptor 1 (Homo sapiens) (UniProt Q08345); conditions: Compound concentration 1000.0 nM
[36] = target: Angiotensin-converting enzyme (Homo sapiens) (UniProt P12821); assay: ACE (h) Eurofins-Cerep enzyme and uptake assay; conditions: Compound concentration 10.0 uM
[37] = target: Ribosomal protein S6 kinase alpha-1 (Homo sapiens) (UniProt Q15418); conditions: Compound concentration 1000.0 nM
[38] = target: MAP/microtubule affinity-regulating kinase 3 (Homo sapiens) (UniProt P27448); conditions: Compound concentration 1000.0 nM
[39] = tested on: Tyrosine-protein kinase ABL1 (Homo sapiens), P00519 [T315I]; conditions: Compound concentration 1000.0 nM
[40] = target: Receptor-type tyrosine-protein kinase FLT3 (Homo sapiens) (UniProt P36888); conditions: Compound concentration 1000.0 nM

SRSF protein kinase 2 (Homo sapiens), sequence (P78362 whole entry, looked up): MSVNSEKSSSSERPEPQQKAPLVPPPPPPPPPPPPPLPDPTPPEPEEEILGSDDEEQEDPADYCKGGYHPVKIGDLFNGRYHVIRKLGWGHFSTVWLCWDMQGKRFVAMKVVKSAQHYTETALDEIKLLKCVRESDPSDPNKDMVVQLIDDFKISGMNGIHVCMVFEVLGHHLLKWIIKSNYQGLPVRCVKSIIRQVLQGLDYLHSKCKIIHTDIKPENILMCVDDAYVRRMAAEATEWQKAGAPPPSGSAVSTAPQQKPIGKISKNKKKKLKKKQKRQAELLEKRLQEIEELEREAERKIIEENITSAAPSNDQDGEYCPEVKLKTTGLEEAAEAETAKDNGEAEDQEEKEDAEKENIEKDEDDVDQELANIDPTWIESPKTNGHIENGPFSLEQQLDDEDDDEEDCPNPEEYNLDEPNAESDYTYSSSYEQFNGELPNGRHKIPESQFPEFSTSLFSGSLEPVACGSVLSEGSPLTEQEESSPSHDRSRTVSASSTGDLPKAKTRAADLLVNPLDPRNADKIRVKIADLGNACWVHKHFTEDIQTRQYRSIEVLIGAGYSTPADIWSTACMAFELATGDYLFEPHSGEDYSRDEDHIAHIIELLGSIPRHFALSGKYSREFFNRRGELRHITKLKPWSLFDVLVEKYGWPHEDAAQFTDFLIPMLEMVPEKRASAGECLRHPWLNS
Ribosomal protein S6 kinase alpha-2 (Homo sapiens), sequence (Q15349 whole entry): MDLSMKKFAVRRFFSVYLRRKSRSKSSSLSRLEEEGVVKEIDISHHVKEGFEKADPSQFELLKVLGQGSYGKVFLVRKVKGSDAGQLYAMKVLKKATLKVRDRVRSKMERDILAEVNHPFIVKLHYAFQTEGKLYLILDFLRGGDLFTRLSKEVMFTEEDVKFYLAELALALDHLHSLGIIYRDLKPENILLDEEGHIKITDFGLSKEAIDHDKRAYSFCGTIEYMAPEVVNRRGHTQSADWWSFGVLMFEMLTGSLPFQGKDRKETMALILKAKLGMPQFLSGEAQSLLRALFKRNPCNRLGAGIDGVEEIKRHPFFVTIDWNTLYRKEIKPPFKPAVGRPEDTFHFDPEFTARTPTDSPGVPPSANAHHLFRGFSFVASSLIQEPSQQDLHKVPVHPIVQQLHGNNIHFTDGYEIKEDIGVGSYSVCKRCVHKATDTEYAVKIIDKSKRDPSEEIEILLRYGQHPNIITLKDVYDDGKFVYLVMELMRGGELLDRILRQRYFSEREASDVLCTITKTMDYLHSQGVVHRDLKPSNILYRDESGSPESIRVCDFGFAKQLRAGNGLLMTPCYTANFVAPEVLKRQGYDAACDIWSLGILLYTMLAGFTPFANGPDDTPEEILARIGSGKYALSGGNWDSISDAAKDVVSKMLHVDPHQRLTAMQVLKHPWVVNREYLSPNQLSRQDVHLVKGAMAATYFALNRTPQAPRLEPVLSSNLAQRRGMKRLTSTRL
Epithelial discoidin domain-containing receptor 1 (Homo sapiens), sequence (Q08345 whole entry, the tested form may be a part): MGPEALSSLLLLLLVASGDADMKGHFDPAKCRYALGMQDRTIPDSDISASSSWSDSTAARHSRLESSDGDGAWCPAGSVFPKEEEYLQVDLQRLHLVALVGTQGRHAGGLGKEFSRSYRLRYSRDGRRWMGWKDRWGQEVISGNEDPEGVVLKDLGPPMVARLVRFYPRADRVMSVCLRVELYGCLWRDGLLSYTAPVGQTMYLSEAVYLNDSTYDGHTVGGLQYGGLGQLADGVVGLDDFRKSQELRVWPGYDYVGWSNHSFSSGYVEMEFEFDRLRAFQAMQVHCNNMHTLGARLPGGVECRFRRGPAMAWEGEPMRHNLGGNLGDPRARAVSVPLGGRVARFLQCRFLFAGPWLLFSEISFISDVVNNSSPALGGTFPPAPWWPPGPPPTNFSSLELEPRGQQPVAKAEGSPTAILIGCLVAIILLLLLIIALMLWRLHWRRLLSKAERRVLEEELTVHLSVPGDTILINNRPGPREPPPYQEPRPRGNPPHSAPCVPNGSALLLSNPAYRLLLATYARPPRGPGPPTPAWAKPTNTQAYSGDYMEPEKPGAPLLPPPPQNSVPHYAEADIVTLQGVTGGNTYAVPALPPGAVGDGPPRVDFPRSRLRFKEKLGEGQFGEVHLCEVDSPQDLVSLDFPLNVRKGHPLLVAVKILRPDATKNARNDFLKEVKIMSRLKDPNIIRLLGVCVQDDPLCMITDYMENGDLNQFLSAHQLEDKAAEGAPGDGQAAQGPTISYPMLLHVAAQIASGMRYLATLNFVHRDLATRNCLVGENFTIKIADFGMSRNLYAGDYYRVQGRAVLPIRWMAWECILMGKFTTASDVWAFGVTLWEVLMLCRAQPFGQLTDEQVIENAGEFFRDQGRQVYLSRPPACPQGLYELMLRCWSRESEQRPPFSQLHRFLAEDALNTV
Atypical kinase COQ8B, mitochondrial (Homo sapiens), sequence (Q96D53 whole entry): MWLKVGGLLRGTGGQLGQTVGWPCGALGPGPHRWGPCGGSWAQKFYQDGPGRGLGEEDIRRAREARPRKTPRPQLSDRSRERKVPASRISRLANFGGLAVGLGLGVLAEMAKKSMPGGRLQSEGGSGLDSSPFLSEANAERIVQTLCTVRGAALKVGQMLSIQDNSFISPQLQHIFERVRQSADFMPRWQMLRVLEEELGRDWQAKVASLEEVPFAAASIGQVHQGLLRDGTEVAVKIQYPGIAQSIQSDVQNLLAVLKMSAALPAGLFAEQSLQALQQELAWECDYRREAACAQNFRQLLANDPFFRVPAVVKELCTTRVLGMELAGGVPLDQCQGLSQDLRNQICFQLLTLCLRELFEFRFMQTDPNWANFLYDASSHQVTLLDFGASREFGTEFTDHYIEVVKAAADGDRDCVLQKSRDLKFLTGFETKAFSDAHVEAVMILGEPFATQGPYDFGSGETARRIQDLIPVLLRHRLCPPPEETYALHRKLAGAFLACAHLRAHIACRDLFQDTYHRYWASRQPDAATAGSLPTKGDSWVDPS
Angiopoietin-1 receptor (Homo sapiens), sequence (Q02763 whole entry): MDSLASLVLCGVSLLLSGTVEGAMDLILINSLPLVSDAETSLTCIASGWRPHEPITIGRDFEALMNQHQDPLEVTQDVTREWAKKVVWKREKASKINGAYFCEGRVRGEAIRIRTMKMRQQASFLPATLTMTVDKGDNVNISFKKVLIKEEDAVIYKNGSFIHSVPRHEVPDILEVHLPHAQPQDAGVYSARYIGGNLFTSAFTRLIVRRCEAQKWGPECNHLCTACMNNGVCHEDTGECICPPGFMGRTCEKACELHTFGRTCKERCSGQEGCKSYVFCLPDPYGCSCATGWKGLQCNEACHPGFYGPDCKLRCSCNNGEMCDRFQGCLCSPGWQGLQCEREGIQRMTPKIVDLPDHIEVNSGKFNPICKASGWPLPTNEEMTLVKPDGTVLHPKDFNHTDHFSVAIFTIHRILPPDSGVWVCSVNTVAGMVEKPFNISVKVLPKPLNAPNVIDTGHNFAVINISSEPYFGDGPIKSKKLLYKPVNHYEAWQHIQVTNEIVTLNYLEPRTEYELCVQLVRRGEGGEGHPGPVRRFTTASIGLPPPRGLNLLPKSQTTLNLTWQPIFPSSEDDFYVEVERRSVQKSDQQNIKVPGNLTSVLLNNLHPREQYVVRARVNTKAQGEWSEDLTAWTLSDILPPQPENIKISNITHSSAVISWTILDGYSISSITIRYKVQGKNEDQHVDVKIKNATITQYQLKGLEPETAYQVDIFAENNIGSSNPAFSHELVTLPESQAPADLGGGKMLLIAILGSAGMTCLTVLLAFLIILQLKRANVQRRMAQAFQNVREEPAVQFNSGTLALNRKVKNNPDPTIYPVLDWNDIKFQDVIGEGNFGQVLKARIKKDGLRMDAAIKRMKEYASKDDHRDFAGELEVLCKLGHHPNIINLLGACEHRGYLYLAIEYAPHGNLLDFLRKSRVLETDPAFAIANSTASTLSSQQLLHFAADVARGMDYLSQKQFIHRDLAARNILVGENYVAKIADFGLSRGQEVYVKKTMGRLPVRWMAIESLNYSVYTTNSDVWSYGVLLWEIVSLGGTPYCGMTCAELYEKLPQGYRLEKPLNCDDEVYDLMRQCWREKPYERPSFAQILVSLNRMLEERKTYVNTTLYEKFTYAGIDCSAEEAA
Serine/threonine-protein kinase SIK2 (Homo sapiens), sequence (Q9H0K1 whole entry, looked up): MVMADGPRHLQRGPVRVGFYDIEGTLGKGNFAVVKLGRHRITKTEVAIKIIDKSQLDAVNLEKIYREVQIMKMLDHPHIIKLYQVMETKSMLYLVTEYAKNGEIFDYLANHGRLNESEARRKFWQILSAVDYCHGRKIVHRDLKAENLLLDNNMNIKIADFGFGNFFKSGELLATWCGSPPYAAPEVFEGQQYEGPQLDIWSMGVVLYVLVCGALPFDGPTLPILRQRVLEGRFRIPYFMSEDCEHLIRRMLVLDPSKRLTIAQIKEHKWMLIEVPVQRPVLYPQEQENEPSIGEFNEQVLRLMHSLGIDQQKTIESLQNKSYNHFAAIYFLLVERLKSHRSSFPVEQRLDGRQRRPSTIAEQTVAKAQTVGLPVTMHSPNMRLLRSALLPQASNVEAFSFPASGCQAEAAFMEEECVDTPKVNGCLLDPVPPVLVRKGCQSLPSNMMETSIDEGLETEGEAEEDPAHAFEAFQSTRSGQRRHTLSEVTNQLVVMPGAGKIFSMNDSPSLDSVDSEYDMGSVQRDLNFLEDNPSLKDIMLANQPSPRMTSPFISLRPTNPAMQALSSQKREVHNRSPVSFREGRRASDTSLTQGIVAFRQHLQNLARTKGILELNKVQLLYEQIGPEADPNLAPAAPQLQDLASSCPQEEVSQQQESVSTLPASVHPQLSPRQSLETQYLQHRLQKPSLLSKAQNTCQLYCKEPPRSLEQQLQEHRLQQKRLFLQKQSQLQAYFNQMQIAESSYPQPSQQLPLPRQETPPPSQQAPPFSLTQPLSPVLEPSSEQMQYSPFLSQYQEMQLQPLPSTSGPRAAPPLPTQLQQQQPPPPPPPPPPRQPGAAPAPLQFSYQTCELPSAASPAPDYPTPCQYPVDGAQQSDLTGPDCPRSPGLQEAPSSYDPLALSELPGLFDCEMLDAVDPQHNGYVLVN

Work on `O=C(NS(=O)(=O)c1ccc(NCC2CCOCC2)c([N+](=O)[O-])c1)c1ccc(N2CCN(Cc3ccc(C(F)(F)F)cc3-c3ccc(Cl)cc3)CC2)cc1Oc1cnc2[nH]ccc2c1` [A-1210227] yielded a % Inhibition of Control Specific Binding (Mean n=2) [1] of 2.2%, a % Inhibition of Control Values (Mean n=2) [2] of 11% and a residual activity [3] of 100%. For the same compound, the residual activity [4] was 84%, the residual activity [5] was 96% and the residual activity [6] was 98%. For the same compound, the residual activity [7] was 100%, the residual activity [8] was 87% and the residual activity [9] was 100%. It also gave a residual activity [10] of 97%, a residual activity [11] of 100% and a residual activity [12] of 100%. The inhibition [13] was 9.7%, the residual activity [14] was 80% and the residual activity [15] was 63%. For the same compound, the residual activity [16] was 100%, the % Inhibition of Control Values (Mean n=2) [17] was 78.1% and the % Inhibition of Control Specific Binding (Mean n=2) [18] was -51.4%. It also gave an inhibition [19] of 17.9%, a residual activity [20] of 100% and a residual activity [21] of 100%. The residual activity [22] was 100%, the residual activity [23] was 100% and the residual activity [24] was 100%. For the same compound, the residual activity [25] was 96%, the residual activity [26] was 100% and the residual activity [27] was 90%. For the same compound, the EC50 (NCI-H146) was > 5000 nM (not active), the residual activity [28] was 100% and the residual activity [29] was 100%. It also gave a residual activity [30] of 91%, a residual activity [31] of 100% and a residual activity [32] of 100%. The IC50 [33] was 296 nM (not active), the residual activity [34] was 100% and the residual activity [35] was 100%. For the same compound, the % Inhibition of Control Values (Mean n=2) [36] was -32.2%, the residual activity [37] was 100% and the residual activity [38] was 100%. The residual activity [39] was 82% and the residual activity [40] was 80%.
Compound `CO[C@H]1CC[C@H](CNc2ccc(S(=O)(=O)NC(=O)c3ccc(N4CCN(CC5=C(c6ccc(Cl)cc6)CC(C)(C)CC5)CC4)cc3Oc3cnc4[nH]ccc4c3)cc2[N+](=O)[O-])CC1` [A-1211212] has a % Inhibition of Control Specific Binding (Mean n=2) [1] of 29.7%, a % Inhibition of Control Values (Mean n=2) [2] of 3.2% and a residual activity [3] of 88%. The residual activity [4] was 61%, the residual activity [5] was 92% and the residual activity [6] was 94%. For the same compound, the residual activity [7] was 71%, the residual activity [8] was 76% and the residual activity [9] was 100%. For the same compound, the residual activity [10] was 100%, the residual activity [11] was 68% and the residual activity [12] was 93%. It also gave an inhibition [13] of 34.1%, a residual activity [14] of 69% and a residual activity [15] of 100%. For the same compound, the residual activity [16] was 73%, the % Inhibition of Control Values (Mean n=2) [17] was 14.2% and the % Inhibition of Control Specific Binding (Mean n=2) [18] was -142%. The inhibition [19] was 23.6%, the residual activity [20] was 75% and the residual activity [21] was 100%. It also gave a residual activity [22] of 100%, a residual activity [23] of 100% and a residual activity [24] of 100%. For the same compound, the residual activity [25] was 100%, the residual activity [26] was 50% and the residual activity [27] was 100%. For the same compound, the EC50 (NCI-H146) was > 5000 nM (not active), the residual activity [28] was 100% and the residual activity [29] was 55%. It also gave a residual activity [30] of 85%, a residual activity [31] of 100% and a residual activity [32] of 100%. For the same compound, the IC50 [33] was 1.4 nM (active), the residual activity [34] was 100% and the residual activity [35] was 99%. For the same compound, the % Inhibition of Control Values (Mean n=2) [36] was -72.6%, the residual activity [37] was 73% and the residual activity [38] was 96%. For the same compound, the residual activity [39] was 100% and the residual activity [40] was 100%.

Source: ChEMBL document CHEMBL4507310, “Data for DCP probe A-1211212” (2021)
